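Five concentrations, 48 hours, 96-well plates. At the TGI there is no net growth.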
Tests used:
Assay in all cases: NCI tumour cell line growth inhibition, 48 h
SF-539 CNS = tested on: SF-539 CNS
MOLT-4 leukemia = tested on: MOLT-4 leukemia
HOP-62 NSCLC = tested on: HOP-62 NSCLC
SK-MEL-5 melanoma = tested on: SK-MEL-5 melanoma
UACC-62 melanoma = tested on: UACC-62 melanoma
DU-145 prostate = tested on: DU-145 prostate
NCI-H522 lung = tested on: NCI-H522 lung
HT29 colon = tested on: HT29 colon
A498 renal = tested on: A498 renal
NCI/ADR-RES ovarian = tested on: NCI/ADR-RES ovarian
HOP-92 NSCLC = tested on: HOP-92 NSCLC
TK-10 renal = tested on: TK-10 renal
COLO 205 colon = tested on: COLO 205 colon
SF-268 CNS = tested on: SF-268 CNS
OVCAR-3 ovarian = tested on: OVCAR-3 ovarian
786-0 renal = tested on: 786-0 renal
SK-MEL-2 melanoma = tested on: SK-MEL-2 melanoma
SW-620 colon = tested on: SW-620 colon
T-47D breast = tested on: T-47D breast
BT-549 breast = tested on: BT-549 breast
EKVX NSCLC = tested on: EKVX NSCLC
IGROV1 ovarian = tested on: IGROV1 ovarian
RPMI-8226 leukemia = tested on: RPMI-8226 leukemia
RXF 393 renal = tested on: RXF 393 renal
MDA-MB-435 = tested on: MDA-MB-435
SK-OV-3 ovarian = tested on: SK-OV-3 ovarian
HL-60(TB) leukemia = tested on: HL-60(TB) leukemia
PC-3 prostate = tested on: PC-3 prostate
MALME-3M melanoma = tested on: MALME-3M melanoma
OVCAR-4 ovarian = tested on: OVCAR-4 ovarian
K-562 leukemia = tested on: K-562 leukemia
SR leukemia = tested on: SR leukemia
MDA-MB-231 breast = tested on: MDA-MB-231 breast
MDA-N = tested on: MDA-N
SF-295 CNS = tested on: SF-295 CNS
HCT-15 colon = tested on: HCT-15 colon
U251 CNS = tested on: U251 CNS
SNB-19 CNS = tested on: SNB-19 CNS
SN12C renal = tested on: SN12C renal
A549 NSCLC = tested on: A549 NSCLC
CAKI-1 renal = tested on: CAKI-1 renal
MCF7 breast = tested on: MCF7 breast
UO-31 renal = tested on: UO-31 renal
HS 578T breast = tested on: HS 578T breast
NCI-H460 lung = tested on: NCI-H460 lung
HCT-116 colon = tested on: HCT-116 colon
KM12 colon = tested on: KM12 colon
ACHN renal = tested on: ACHN renal
NCI-H23 lung = tested on: NCI-H23 lung
UACC-257 melanoma = tested on: UACC-257 melanoma
SK-MEL-28 melanoma = tested on: SK-MEL-28 melanoma
LOX IMVI melanoma = tested on: LOX IMVI melanoma
M14 melanoma = tested on: M14 melanoma
OVCAR-8 ovarian = tested on: OVCAR-8 ovarian
CCRF-CEM leukemia = tested on: CCRF-CEM leukemia
OVCAR-5 ovarian = tested on: OVCAR-5 ovarian
NCI-H226 lung = tested on: NCI-H226 lung
HCC-2998 colon = tested on: HCC-2998 colon
SNB-75 CNS = tested on: SNB-75 CNS

## O=C(NCc1cccs1)OC1CC2CCC1C2 (stereo not drawn)
SF-539 CNS
  TGI: > 100 µM
MOLT-4 leukemia
  TGI: > 100 µM
HOP-62 NSCLC
  TGI: > 100 µM
SK-MEL-5 melanoma
  TGI: > 100 µM
UACC-62 melanoma
  TGI: > 100 µM
DU-145 prostate
  TGI: > 100 µM
NCI-H522 lung
  TGI: > 100 µM
HT29 colon
  TGI: > 100 µM
A498 renal
  TGI: > 100 µM
NCI/ADR-RES ovarian
  TGI: > 100 µM
HOP-92 NSCLC
  TGI: > 100 µM
TK-10 renal
  TGI: > 100 µM
COLO 205 colon
  TGI: > 100 µM
SF-268 CNS
  TGI: > 100 µM
OVCAR-3 ovarian
  TGI: > 100 µM
786-0 renal
  TGI: > 100 µM
SK-MEL-2 melanoma
  TGI: > 100 µM
SW-620 colon
  TGI: > 100 µM
T-47D breast
  TGI: > 100 µM
BT-549 breast
  TGI: > 100 µM
EKVX NSCLC
  TGI: > 100 µM
IGROV1 ovarian
  TGI: > 100 µM
RPMI-8226 leukemia
  TGI: > 100 µM
RXF 393 renal
  TGI: > 100 µM
MDA-MB-435
  TGI: > 100 µM
SK-OV-3 ovarian
  TGI: > 100 µM
HL-60(TB) leukemia
  TGI: > 100 µM
PC-3 prostate
  TGI: > 100 µM
MALME-3M melanoma
  TGI: > 100 µM
OVCAR-4 ovarian
  TGI: > 100 µM
K-562 leukemia
  TGI: > 100 µM
SR leukemia
  TGI: > 100 µM
MDA-MB-231 breast
  TGI: > 100 µM
MDA-N
  TGI: > 100 µM
SF-295 CNS
  TGI: > 100 µM
HCT-15 colon
  TGI: > 100 µM
U251 CNS
  TGI: > 100 µM
SNB-19 CNS
  TGI: > 100 µM
SN12C renal
  TGI: > 100 µM
A549 NSCLC
  TGI: > 100 µM
CAKI-1 renal
  TGI: > 100 µM
MCF7 breast
  TGI: > 100 µM
UO-31 renal
  TGI: > 100 µM
HS 578T breast
  TGI: > 100 µM
NCI-H460 lung
  TGI: > 100 µM
HCT-116 colon
  TGI: > 100 µM
KM12 colon
  TGI: > 100 µM
ACHN renal
  TGI: > 100 µM
NCI-H23 lung
  TGI: > 100 µM
UACC-257 melanoma
  TGI: > 100 µM
SK-MEL-28 melanoma
  TGI: > 100 µM
LOX IMVI melanoma
  TGI: > 100 µM
M14 melanoma
  TGI: > 100 µM
OVCAR-8 ovarian
  TGI: > 100 µM
CCRF-CEM leukemia
  TGI: > 100 µM
OVCAR-5 ovarian
  TGI: > 100 µM
NCI-H226 lung
  TGI: > 100 µM

## CCN(CC)CCOCC1CCCN2CCCCC12 (stereo not drawn)
SF-539 CNS
  TGI: > 100 µM
MOLT-4 leukemia
  TGI: > 100 µM
HOP-62 NSCLC
  TGI: > 100 µM
SK-MEL-5 melanoma
  TGI: > 100 µM
UACC-62 melanoma
  TGI: > 100 µM
DU-145 prostate
  TGI: > 100 µM
HT29 colon
  TGI: > 100 µM
NCI/ADR-RES ovarian
  TGI: > 100 µM
HOP-92 NSCLC
  TGI: > 100 µM
TK-10 renal
  TGI: > 100 µM
COLO 205 colon
  TGI: > 100 µM
SF-268 CNS
  TGI: > 100 µM
OVCAR-3 ovarian
  TGI: > 100 µM
786-0 renal
  TGI: > 100 µM
SK-MEL-2 melanoma
  TGI: > 100 µM
SW-620 colon
  TGI: > 100 µM
T-47D breast
  TGI: > 100 µM
BT-549 breast
  TGI: > 100 µM
EKVX NSCLC
  TGI: > 100 µM
RPMI-8226 leukemia
  TGI: > 100 µM
RXF 393 renal
  TGI: > 100 µM
MDA-MB-435
  TGI: > 100 µM
HCC-2998 colon
  TGI: > 100 µM
SK-OV-3 ovarian
  TGI: > 100 µM
HL-60(TB) leukemia
  TGI: > 100 µM
PC-3 prostate
  TGI: > 100 µM
MALME-3M melanoma
  TGI: > 100 µM
OVCAR-4 ovarian
  TGI: > 100 µM
K-562 leukemia
  TGI: > 100 µM
MDA-MB-231 breast
  TGI: > 100 µM
MDA-N
  TGI: > 100 µM
SF-295 CNS
  TGI: > 100 µM
HCT-15 colon
  TGI: > 100 µM
SNB-75 CNS
  TGI: > 100 µM
U251 CNS
  TGI: > 100 µM
SNB-19 CNS
  TGI: > 100 µM
SN12C renal
  TGI: > 100 µM
A549 NSCLC
  TGI: > 100 µM
CAKI-1 renal
  TGI: > 100 µM
MCF7 breast
  TGI: > 100 µM
UO-31 renal
  TGI: > 100 µM
HS 578T breast
  TGI: > 100 µM
NCI-H460 lung
  TGI: > 100 µM
HCT-116 colon
  TGI: > 100 µM
KM12 colon
  TGI: > 100 µM
ACHN renal
  TGI: > 100 µM
NCI-H23 lung
  TGI: > 100 µM
UACC-257 melanoma
  TGI: > 100 µM
SK-MEL-28 melanoma
  TGI: > 100 µM
LOX IMVI melanoma
  TGI: > 100 µM
M14 melanoma
  TGI: > 100 µM
OVCAR-8 ovarian
  TGI: > 100 µM
CCRF-CEM leukemia
  TGI: > 100 µM
OVCAR-5 ovarian
  TGI: > 100 µM
NCI-H226 lung
  TGI: > 100 µM

## CCCCCCCCCCCCCCC[C@@H](O)C[N+](C)(C)CCO
SF-539 CNS
  TGI: 21.8 µM
MOLT-4 leukemia
  TGI: > 24.5 µM
HOP-62 NSCLC
  TGI: > 100 µM
SK-MEL-5 melanoma
  TGI: 7.07 µM
UACC-62 melanoma
  TGI: 36.4 µM
DU-145 prostate
  TGI: 48.2 µM
NCI-H522 lung
  TGI: 4.35 µM
HT29 colon
  TGI: 4.62 µM
A498 renal
  TGI: > 100 µM
NCI/ADR-RES ovarian
  TGI: 34.3 µM
HOP-92 NSCLC
  TGI: > 39.7 µM
TK-10 renal
  TGI: 2.86 µM
COLO 205 colon
  TGI: 14.6 µM
SF-268 CNS
  TGI: 6.66 µM
OVCAR-3 ovarian
  TGI: > 93.6 µM
786-0 renal
  TGI: 3.07 µM
SK-MEL-2 melanoma
  TGI: 44.3 µM
SW-620 colon
  TGI: > 45.4 µM
T-47D breast
  TGI: 55.6 µM
BT-549 breast
  TGI: 3.63 µM
EKVX NSCLC
  TGI: 37.4 µM
IGROV1 ovarian
  TGI: 2.11 µM
RPMI-8226 leukemia
  TGI: > 100 µM
MDA-MB-435
  TGI: 33.4 µM
HCC-2998 colon
  TGI: 4.81 µM
SK-OV-3 ovarian
  TGI: 36 µM
HL-60(TB) leukemia
  TGI: 0.36 µM
MALME-3M melanoma
  TGI: 15.4 µM
OVCAR-4 ovarian
  TGI: 22.9 µM
K-562 leukemia
  TGI: > 100 µM
SR leukemia
  TGI: > 23.6 µM
MDA-MB-231 breast
  TGI: 7.85 µM
MDA-N
  TGI: 29.5 µM
SF-295 CNS
  TGI: 10.1 µM
HCT-15 colon
  TGI: 14 µM
SNB-75 CNS
  TGI: 7.54 µM
U251 CNS
  TGI: 2.59 µM
SNB-19 CNS
  TGI: 3.81 µM
SN12C renal
  TGI: 50.8 µM
A549 NSCLC
  TGI: 29.1 µM
CAKI-1 renal
  TGI: 4.1 µM
MCF7 breast
  TGI: 33.6 µM
UO-31 renal
  TGI: 35.6 µM
HS 578T breast
  TGI: 7.53 µM
NCI-H460 lung
  TGI: 5.01 µM
HCT-116 colon
  TGI: > 62.1 µM
KM12 colon
  TGI: 1.4 µM
ACHN renal
  TGI: 24.1 µM
NCI-H23 lung
  TGI: 10.7 µM
UACC-257 melanoma
  TGI: 49.2 µM
SK-MEL-28 melanoma
  TGI: 52.5 µM
M14 melanoma
  TGI: 41.1 µM
OVCAR-8 ovarian
  TGI: 30 µM
CCRF-CEM leukemia
  TGI: 11.5 µM
OVCAR-5 ovarian
  TGI: 11.4 µM
NCI-H226 lung
  TGI: 14 µM
